The test system of assay [1] is luciferase-expressing L. major parasites developing intracellularly inside RAW 264.7 macrophages. Description: Leishmania major intracellular amastigote assay in RAW 264.7 macrophages (luciferase). In kind it is cell-based. The following applies: RAW264.7, 96 hours, read-out: IC50: I Org. intracellular amastigote Growth L. major, 4 d. Summed up: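 RAW 264.7 macrophages infected overnight with luciferase-expressing L. major promastigotes, washed of extracellular parasites, then exposed to two-fold compound dilutions (final 0.5-10,000 ng/ml) for 96 h at 37° C, 5% CO2. Luciferin luminescence after 30 min; IC50 by sigmoidal variable-slope regression.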

Assay [2] has as its system TdTomato-modified T. cruzi (CL strain) in Vero cells. Kind of assay: In vitro IC50 measurement of T. cruzi amastigote killing using TdTomato-modified T. cruzi (CL strain). Conditions: Trypanosoma cruzi, 72 h, fluorescence, read-out: IC50: I Org. amastigote Growth T. cruzi CL TdTomato, 3 d. Format: cell-based. The procedure, abridged:
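Vero cells were infected with tdTomato-expressing CL-strain parasites and dosed at 5 uM–5 nM. Fluorescence (ex 544/em 612 nm) was read at day 0 and again after 72 h at 37 °C, with day 0 values subtracted. IC50 and IC90 came from nonlinear regression.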

4 molecules from patent US11691992B2 (Anacor Pharmaceuticals, Inc., priority 2017, dated 2023) can be followed below.

For the molecule `O=C(Nc1ccc2c(c1)B(O)OC21CCC1)c1cn(-c2ccccn2)nn1` [Example 26, N-(1-hydroxy-1H-spiro[benzo[c][1,2]oxaborole-3,1′-cyclobutan]-6-yl)-1-(pyridin-2-yl)-1H-1,2,3-triazole-4-carboxamide], the half-inhibitory concentration (IC50) – broadly, the midpoint of a concentration-inhibition curve – was in the range of 1.1 to 9.9 µM in assay [1] and 1.1 to 10 µM in assay [2].

Consider `O=C(Nc1ccc2c(c1)B(O)OC2)c1cn(-c2ccccn2)nn1` [Example 61, N-(1-hydroxy-1,3-dihydrobenzo[c][1,2]oxaborol-6-yl)-1-(pyridin-2-yl)-1H-1,2,3-triazole-4-carboxamide], for which the IC50 is 1.1 to 9.9 µM in assay [1] and less than 0.6 µM in assay [2].

For the molecule `Cc1c(C(=O)Nc2ccc3c(c2)B(O)OC3)nnn1-c1ccccn1` [Example 84, N-(1-hydroxy-1,3-dihydrobenzo[c][1,2]oxaborol-6-yl)-5-methyl-1-(pyridin-2-yl)-1H-1,2,3-triazole-4-carboxamide], the IC50 in assay [1] was in the range of 1.1 to 9.9 µM; in assay [2], 0.6 to 1 µM.

For the molecule `Cc1c(C(=O)Nc2ccc3c(c2)B(O)OC3)nnn1-c1cccnc1` [Example 93, N-(1-hydroxy-1,3-dihydrobenzo[c][1,2]oxaborol-6-yl)-5-methyl-1-(pyridin-3-yl)-1H-1,2,3-triazole-4-carboxamide], the figures for the IC50 in assay [1] and in assay [2] were 10 to 50 µM and 1.1 to 10 µM, respectively.
